Laboratory results taken from ChEMBL document CHEMBL4507291 (2021).

Columns and labels:
[1] = molecular target: RAC-beta serine/threonine-protein kinase (Homo sapiens) (UniProt P31751); test: AKT2 (PKB beta) Kinase screen; conditions: Compound concentration 1.0 uM
[2] = molecular target: T1, Serine/threonine-protein kinase Chk1 (Homo sapiens) (UniProt O14757); test: CHEK1 (CHK1) Kinase screen; conditions: Compound concentration 1.0 uM
T1 sequence (whole entry): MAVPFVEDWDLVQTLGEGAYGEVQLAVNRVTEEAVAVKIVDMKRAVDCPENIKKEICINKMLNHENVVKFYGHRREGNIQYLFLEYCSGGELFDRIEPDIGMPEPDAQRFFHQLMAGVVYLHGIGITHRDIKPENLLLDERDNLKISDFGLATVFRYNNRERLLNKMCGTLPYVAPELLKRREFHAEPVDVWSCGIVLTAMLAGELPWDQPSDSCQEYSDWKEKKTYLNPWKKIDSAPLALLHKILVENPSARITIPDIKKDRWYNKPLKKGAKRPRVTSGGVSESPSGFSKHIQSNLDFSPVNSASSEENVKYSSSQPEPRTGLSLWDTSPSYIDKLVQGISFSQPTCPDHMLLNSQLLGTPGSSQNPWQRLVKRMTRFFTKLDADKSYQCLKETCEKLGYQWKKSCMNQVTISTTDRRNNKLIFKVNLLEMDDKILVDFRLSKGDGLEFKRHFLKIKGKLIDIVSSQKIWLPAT

[3] = molecular target: Casein kinase I isoform delta (Homo sapiens) (UniProt P48730); test: CSNK1D (CK1 delta) Kinase screen; conditions: Compound concentration 1.0 uM
[4] = molecular target: T2, Serine/threonine-protein kinase DCLK2 (Homo sapiens) (UniProt Q8N568); test: DCAMKL2 (DCK2) Kinase screen; conditions: Compound concentration 1.0 uM
T2 sequence (whole entry): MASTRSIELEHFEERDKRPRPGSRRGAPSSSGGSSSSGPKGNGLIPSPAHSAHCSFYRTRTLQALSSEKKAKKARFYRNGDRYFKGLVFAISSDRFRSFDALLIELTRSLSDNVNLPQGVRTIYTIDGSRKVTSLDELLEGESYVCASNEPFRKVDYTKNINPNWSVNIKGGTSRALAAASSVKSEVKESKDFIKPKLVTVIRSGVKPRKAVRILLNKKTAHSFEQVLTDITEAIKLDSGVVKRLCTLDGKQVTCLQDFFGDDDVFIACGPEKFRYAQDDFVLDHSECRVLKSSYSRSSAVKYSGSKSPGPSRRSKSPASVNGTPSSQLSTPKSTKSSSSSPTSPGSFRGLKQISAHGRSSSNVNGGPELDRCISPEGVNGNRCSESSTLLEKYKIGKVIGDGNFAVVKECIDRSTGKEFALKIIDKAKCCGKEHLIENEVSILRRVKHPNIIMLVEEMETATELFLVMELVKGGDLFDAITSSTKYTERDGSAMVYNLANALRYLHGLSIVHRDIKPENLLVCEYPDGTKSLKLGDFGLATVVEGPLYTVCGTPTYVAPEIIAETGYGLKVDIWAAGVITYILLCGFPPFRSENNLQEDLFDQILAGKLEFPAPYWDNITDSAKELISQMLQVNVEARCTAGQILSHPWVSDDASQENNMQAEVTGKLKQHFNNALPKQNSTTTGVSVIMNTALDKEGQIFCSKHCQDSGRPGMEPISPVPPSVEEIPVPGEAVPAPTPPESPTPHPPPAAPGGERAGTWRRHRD

[5] = tested on: Epidermal growth factor receptor (Homo sapiens), P00533 [L858R,T790M]; test: EGFR (ErbB1) T790M L858R Kinase screen; conditions: Compound concentration 1.0 uM
[6] = molecular target: Tyrosine-protein kinase Lyn (Homo sapiens) (UniProt P07948); test: LYN A Kinase screen; conditions: Compound concentration 1.0 uM
[7] = molecular target: T3, Mitogen-activated protein kinase kinase kinase 2 (Homo sapiens) (UniProt Q9Y2U5); test: MAP3K2 (MEKK2) Kinase screen; conditions: Compound concentration 1.0 uM
T3 sequence (whole entry): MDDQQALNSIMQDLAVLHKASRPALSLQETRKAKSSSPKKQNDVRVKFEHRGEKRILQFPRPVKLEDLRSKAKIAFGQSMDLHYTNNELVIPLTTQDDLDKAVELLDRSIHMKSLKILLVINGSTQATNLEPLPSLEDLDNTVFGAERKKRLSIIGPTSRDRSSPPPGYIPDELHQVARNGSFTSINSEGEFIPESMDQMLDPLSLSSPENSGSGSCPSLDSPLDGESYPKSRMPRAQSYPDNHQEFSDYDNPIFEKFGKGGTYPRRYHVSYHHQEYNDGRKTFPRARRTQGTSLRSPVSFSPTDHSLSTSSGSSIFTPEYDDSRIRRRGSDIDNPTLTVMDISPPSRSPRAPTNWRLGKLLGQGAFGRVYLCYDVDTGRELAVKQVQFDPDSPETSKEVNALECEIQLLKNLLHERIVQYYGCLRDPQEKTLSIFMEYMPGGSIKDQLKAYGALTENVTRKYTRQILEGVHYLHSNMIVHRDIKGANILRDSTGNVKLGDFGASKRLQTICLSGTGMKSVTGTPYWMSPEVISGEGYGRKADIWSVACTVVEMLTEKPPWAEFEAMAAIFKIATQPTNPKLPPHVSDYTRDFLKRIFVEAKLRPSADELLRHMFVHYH

[8] = molecular target: T4, Serine/threonine-protein kinase NLK (Homo sapiens) (UniProt Q9UBE8); test: NLK Kinase screen; conditions: Compound concentration 1.0 uM
T4 sequence (whole entry): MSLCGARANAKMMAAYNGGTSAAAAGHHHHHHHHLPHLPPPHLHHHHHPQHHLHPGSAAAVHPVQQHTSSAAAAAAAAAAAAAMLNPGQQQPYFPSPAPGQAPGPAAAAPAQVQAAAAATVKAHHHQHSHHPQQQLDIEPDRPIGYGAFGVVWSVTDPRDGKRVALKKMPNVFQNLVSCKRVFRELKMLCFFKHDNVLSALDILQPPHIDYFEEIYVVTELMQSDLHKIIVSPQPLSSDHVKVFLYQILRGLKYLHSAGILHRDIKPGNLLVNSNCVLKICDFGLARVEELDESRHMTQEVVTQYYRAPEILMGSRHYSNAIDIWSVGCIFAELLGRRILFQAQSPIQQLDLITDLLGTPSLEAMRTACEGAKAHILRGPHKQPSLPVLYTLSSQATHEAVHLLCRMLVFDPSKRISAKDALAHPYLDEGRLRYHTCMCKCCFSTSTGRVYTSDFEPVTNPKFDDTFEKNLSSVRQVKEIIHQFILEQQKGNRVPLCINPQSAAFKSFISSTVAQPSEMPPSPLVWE

[9] = molecular target: Ribosomal protein S6 kinase alpha-5 (Homo sapiens) (UniProt O75582); test: RPS6KA5 (MSK1) Kinase screen; conditions: Compound concentration 1.0 uM
[10] = molecular target: Mu-type opioid receptor (Homo sapiens) (UniProt P35372); conditions: Compound concentration 10.0 uM

Measured: inhibition

Sequence of Casein kinase I isoform delta (Homo sapiens) (P48730 whole entry, looked up, canonical isoform): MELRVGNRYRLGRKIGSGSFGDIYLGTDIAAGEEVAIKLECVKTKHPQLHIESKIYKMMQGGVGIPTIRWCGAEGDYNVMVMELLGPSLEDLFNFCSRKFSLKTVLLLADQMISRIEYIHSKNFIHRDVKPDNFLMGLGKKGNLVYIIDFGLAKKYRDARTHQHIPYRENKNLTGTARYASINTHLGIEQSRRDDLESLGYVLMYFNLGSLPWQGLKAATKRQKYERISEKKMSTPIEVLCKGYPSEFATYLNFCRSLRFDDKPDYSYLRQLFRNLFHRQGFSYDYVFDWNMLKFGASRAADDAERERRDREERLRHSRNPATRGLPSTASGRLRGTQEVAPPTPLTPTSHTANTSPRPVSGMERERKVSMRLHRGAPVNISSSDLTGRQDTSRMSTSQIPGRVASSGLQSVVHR
Sequence of Mu-type opioid receptor (Homo sapiens) (P35372 whole entry): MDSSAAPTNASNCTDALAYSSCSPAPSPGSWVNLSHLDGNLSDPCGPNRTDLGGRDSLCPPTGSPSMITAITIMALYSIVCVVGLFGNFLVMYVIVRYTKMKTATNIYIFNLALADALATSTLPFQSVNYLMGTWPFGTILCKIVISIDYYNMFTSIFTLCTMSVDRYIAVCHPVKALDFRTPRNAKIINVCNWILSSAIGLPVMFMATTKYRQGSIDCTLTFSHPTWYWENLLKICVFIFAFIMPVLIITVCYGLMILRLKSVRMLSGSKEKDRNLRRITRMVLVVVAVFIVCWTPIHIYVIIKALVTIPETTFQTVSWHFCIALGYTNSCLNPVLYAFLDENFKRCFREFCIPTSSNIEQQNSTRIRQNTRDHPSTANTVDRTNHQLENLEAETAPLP
Sequence of Tyrosine-protein kinase Lyn (Homo sapiens) (P07948 2-512 limits assumed): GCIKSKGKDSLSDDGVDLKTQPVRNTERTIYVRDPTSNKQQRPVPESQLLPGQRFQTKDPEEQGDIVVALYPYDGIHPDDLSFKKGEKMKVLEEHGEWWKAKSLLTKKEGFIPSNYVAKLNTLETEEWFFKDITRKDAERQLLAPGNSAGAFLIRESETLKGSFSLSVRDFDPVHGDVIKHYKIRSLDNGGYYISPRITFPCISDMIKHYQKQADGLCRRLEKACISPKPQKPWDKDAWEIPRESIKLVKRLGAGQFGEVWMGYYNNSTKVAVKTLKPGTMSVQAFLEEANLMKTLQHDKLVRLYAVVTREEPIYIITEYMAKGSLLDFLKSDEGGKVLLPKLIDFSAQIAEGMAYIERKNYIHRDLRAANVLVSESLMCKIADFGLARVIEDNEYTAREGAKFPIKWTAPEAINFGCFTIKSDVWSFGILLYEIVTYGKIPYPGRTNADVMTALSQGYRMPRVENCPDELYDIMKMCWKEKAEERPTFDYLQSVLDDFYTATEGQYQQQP
Sequence of RAC-beta serine/threonine-protein kinase (Homo sapiens) (P31751 whole entry): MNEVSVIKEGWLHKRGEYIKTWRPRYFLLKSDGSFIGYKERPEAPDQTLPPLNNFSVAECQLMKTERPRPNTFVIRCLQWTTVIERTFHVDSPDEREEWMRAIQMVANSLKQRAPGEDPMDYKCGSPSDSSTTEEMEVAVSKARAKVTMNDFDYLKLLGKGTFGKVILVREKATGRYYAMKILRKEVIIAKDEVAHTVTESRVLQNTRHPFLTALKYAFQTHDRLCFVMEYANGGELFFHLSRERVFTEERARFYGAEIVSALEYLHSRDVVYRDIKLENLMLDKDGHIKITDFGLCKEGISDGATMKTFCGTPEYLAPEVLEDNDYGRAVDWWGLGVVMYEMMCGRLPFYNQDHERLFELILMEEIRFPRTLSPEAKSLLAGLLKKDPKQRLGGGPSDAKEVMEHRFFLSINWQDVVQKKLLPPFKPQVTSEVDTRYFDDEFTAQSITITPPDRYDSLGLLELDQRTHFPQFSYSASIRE
Sequence of Ribosomal protein S6 kinase alpha-5 (Homo sapiens) (O75582 whole entry, looked up): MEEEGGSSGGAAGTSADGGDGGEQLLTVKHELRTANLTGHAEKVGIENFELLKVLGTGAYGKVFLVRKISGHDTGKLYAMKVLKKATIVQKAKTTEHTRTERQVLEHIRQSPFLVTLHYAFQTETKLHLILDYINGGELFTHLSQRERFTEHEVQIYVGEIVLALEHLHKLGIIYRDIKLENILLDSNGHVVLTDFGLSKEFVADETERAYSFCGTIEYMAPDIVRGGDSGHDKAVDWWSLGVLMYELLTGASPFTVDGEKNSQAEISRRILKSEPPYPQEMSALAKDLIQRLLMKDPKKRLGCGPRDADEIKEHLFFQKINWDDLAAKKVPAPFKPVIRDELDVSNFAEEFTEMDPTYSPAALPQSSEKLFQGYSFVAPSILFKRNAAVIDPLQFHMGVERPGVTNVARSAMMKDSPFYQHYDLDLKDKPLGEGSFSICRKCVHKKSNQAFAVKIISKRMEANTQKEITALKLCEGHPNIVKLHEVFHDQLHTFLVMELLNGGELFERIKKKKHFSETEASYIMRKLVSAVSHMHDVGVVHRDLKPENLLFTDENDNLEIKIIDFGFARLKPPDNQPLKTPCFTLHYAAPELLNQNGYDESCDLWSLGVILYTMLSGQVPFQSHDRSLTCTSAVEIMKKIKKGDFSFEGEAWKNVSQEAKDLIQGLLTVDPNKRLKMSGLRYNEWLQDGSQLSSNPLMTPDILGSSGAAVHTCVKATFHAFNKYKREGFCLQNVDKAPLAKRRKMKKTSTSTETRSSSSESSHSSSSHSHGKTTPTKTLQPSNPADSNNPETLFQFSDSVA
Sequence of Epidermal growth factor receptor (Homo sapiens), P00533 [L858R,T790M] (P00533 whole entry T790M/L858R, looked up): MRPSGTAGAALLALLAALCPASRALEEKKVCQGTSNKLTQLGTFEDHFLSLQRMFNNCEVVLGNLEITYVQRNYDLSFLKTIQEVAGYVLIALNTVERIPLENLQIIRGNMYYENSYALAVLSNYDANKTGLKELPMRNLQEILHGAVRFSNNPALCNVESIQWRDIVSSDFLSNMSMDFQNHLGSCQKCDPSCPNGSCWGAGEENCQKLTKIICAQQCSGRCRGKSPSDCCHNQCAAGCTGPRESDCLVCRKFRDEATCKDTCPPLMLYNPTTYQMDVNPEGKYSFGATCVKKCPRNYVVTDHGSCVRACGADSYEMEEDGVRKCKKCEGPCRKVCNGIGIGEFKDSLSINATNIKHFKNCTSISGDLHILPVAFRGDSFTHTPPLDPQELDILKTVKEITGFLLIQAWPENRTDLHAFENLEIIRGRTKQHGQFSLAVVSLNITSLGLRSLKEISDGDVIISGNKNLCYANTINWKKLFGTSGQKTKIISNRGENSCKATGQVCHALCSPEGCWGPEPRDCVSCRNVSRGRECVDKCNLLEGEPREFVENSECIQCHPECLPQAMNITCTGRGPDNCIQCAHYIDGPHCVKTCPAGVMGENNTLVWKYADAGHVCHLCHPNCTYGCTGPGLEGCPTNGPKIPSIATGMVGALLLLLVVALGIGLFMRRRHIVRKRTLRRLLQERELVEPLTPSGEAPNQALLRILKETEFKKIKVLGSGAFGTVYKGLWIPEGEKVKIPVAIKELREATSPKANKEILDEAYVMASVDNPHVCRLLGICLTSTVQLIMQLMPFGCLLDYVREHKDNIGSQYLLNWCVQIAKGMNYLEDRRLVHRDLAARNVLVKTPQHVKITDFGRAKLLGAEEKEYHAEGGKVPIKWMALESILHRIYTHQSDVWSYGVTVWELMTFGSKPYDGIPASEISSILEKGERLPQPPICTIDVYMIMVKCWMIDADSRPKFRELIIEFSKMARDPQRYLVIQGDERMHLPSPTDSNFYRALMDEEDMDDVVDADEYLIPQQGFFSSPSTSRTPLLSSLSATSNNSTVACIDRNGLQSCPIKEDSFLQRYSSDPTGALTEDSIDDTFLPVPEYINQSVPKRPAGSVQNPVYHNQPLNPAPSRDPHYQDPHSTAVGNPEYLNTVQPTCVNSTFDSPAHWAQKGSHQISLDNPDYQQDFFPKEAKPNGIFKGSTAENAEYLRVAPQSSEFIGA

C[C@@H]1CN(c2cc(-c3n[nH]c4ccc(OC5(C)CC5)cc34)ncn2)C[C@H](C)O1 [MLi-2]
inactive: [1] 5.53% | [2] -0.226% | [3] 0.974% | [4] 5.61% | [5] 2.37% | [6] 1.05% | [7] 7.58% | [8] 4.49% | [9] 0.435% | [10] 17%
